# Measured values reported in PMC9558510 (Cancers, 2022).
# Experiments:
# [1] = Observed steady-state serum concentrations (LC-MS/MS) in melanoma patients; format: in vivo, human; conditions: for effect of co-medication with at least one P-gp inducer on individual mean trough concentrations / serum Cmin mean / serum Cmin median: standard dose
# Description: Serum samples were collected regularly during each routine outpatient visit from study enrollment until January 2022 or until treatment discontinuation. If possible, blood sampling was performed before the next drug administration, but any time interval between the last administration and blood withdrawal was accepted. The steady-state was assumed after continuous dosing for fourteen days for both compounds.
# Hydroxy-dabrafenib concentrations were analyzed using a different previously published LC-MS/MS method with an LLOQ of 10 ng/mL [37]. […] Hydroxy-dabrafenib was not quantified in capillary blood samples as the methodology was not available at the time of analysis. All the methods have been validated according to the guidelines of the U.S. Food and Drug Administration and/or the European Medicines Agency.
# Data were collected and processed using Microsoft Excel 2016 Version 16.0 (Microsoft Corporation, Redmond, WA, USA). Statistical calculations and visualization of results were performed with R Studio Version 1.2.5042 (RStudio Incorporation, Boston, MA, USA) running R version 4.0.5 (R Foundation for Statistical Computing, Vienna, Austria, 2020). For further analysis, serum concentrations were divided into groups according to time interval post-dose as follows: 0–5 h, 5–10 h, 10–14 h, and >14 h for (hydroxy-)dabrafenib and 0–10 h, 10–20 h, 20–30 h, and >30 h for trametinib. Concentrations < LLOQ were excluded from further statistical analyses. The concentrations of the same patient at the same dosage and within the same post-dose group were summarized into an individual mean serum concentration for descriptive statistical analysis to account for potential bias caused by the unbalanced number of samples per patient. […] The Wilcoxon […] test was used for unpaired samples. The correlations between individual PK parameters sampled from the conditional distribution during the generation of EBE (methods for estimation see below) and age, sex, body mass index (BMI), and co-medication were analyzed using analysis of variance (ANOVA) and Spearman’s correlation coefficient. Logistic regression was used to compare the risk of treatment discontinuations or dose reductions (dabrafenib dose reduction or discontinuation, trametinib dose reduction or discontinuation, or any dose reduction or discontinuation) with the corresponding predicted trough concentrations and area under the curve of a dosing interval (AUCτ) of dabrafenib, hydroxy-dabrafenib, and trametinib as well as with the composite predicted dabrafenib/hydroxy-dabrafenib trough concentration and with composite dabrafenib/hydroxy-dabrafenib AUCτ assuming standard dosing. The Hosmer–Lemeshow test was used to evaluate the goodness of fit for our logistic regression model. Due to the explorative nature of the study, p-values obtained from multiple comparisons were not corrected for multiple testing. A p-value < 0.05 was considered statistically significant.
# [2] = set-up: method as in PMID 32283865; conditions: popPK model population value; cited from earlier work
# [3] = set-up: method as in PMID 24408395; conditions: cited from earlier work
# [4] = set-up: method as in PMID 33846903; conditions: cited from earlier work
# [5] = serum, dabrafenib dose of 150 mg q12h
Compound,effect of co-medication with at least one P-gp inducer on individual mean trough concentrations ([1]; serum),serum Cmin mean ([1]; BMI (kg/m2) < 30) [ng/mL],serum Cmin median ([1]; BMI (kg/m2) < 30) [ng/mL],serum Cmin mean ([1]; BMI (kg/m2) >= 30) [ng/mL],serum Cmin median ([1]; BMI (kg/m2) >= 30) [ng/mL],serum Cmin mean ([1]; P-gp inducer: no) [ng/mL],serum Cmin median ([1]; P-gp inducer: no) [ng/mL],serum Cmin mean ([1]; P-gp inducer: yes) [ng/mL],serum Cmin median ([1]; P-gp inducer: yes) [ng/mL],serum Cmin mean ([1]; P-gp inhibitor: no) [ng/mL],serum Cmin median ([1]; P-gp inhibitor: no) [ng/mL],serum Cmin mean ([1]; P-gp inhibitor: yes) [ng/mL],serum Cmin median ([1]; P-gp inhibitor: yes) [ng/mL],serum Cmin mean ([1]; PPI: no) [ng/mL],serum Cmin median ([1]; PPI: no) [ng/mL],serum Cmin mean ([1]; PPI: yes) [ng/mL],serum Cmin median ([1]; PPI: yes) [ng/mL],serum Cmin mean ([1]; age above 65: no) [ng/mL],serum Cmin median ([1]; age above 65: no) [ng/mL],serum Cmin mean ([1]; age above 65: yes) [ng/mL],further results
CC(C)(C)c1nc(-c2cccc(NS(=O)(=O)c3c(F)cccc3F)c2F)c(-c2ccnc(N)n2)s1 [dabrafenib],no effect,46.5,42.9,69.1,54,60.9,48,40.4,41.8,77.8,52.9,42.4,41.8,63.1,51.6,32.4,32.4,54.9,43.5,51.9,"median of individual mean trough concentration [1, 5]: 45.0 ng/mL; range of individual mean trough concentration [1, 5]: 20 to 155 ng/mL; serum Cmin median ([1]; age above 65: yes): 42.9 ng/mL; serum Cmin mean ([1]; moderate CYP2C8 inhibitor: no): 58.9 ng/mL; serum Cmin median ([1]; moderate CYP2C8 inhibitor: no): 44.3 ng/mL; serum Cmin mean ([1]; moderate CYP2C8 inhibitor: yes): 46.9 ng/mL; serum Cmin median ([1]; moderate CYP2C8 inhibitor: yes): 47.4 ng/mL; serum Cmin mean ([1]; sex female): 75.5 ng/mL; serum Cmin median ([1]; sex female): 52.9 ng/mL; serum Cmin mean ([1]; sex male): 36.5 ng/mL; serum Cmin median ([1]; sex male): 39.3 ng/mL; CENT (central compartment) volume [2]: 39.5 L; CL/F (oral clearance from central compartment) [2]: 17.7 L/h; PER (peripheral compartment) volume [2]: 19.6 L; Tlag (lag time before beginning of absorption process) [2]: 0.5 h; ka (absorption rate constant) [2]: 1.8 h⁻¹; CYP3A autoinduction: induction half-life [3]: approximately 67 h; half-life [3]: eight; protein binding [4]: > 99.5%"
CC(=O)Nc1cccc(-n2c(=O)n(C3CC3)c(=O)c3c(Nc4ccc(I)cc4F)n(C)c(=O)c(C)c32)c1 [trametinib],significant decrease,11.2,11.4,9.93,9.79,11.5,11.7,9.3,9.68,10.9,11.3,10.5,10.9,10.8,11.5,10.7,10.9,10.6,11.3,10.9,"median of mean trough concentration ([1]; serum, 2 mg q24h): 11.2 ng/mL; range of mean trough concentration ([1]; serum, 2 mg q24h): 6.22 to 15.9 ng/mL; serum Cmin median ([1]; age above 65: yes): 10.9 ng/mL; serum Cmin mean ([1]; sex female): 11.1 ng/mL; serum Cmin median ([1]; sex female): 11.3 ng/mL; serum Cmin mean ([1]; sex male): 10.6 ng/mL; serum Cmin median ([1]; sex male): 11.2 ng/mL; CENT (central compartment) volume [2]: 61.9 L; CL/F (oral clearance from central compartment) [2]: 5.83 L/h; PER (peripheral compartment) volume [2]: 417 L; Tlag (lag time before beginning of absorption process) [2]: 0.709 h; ka (absorption rate constant) [2]: 0.913 h⁻¹"
